Tests used:
[1] = Pharmacokinetics and brain distribution after single sc dose to mice; type: in vivo
[2] = Metabolic stability in male rat liver S9; type: in vitro ADME
[3] = target: MMP-9cat (catalytic domain of human recombinant MMP-9) (Homo sapiens, UniProt P14780); assay: MMP inhibition kinetics, MMP-9cat; type: biochemical; details: slow-binding; Ki calculated from koff/kon
[4] = female, C57Bl/6J, mouse, in vivo, 25 mg/kg
[5] = female, C57Bl/6J, mouse, in vivo, sc, 25 mg/kg

Sequence of MMP-9cat (catalytic domain of human recombinant MMP-9) (P14780 107-444 limits assumed): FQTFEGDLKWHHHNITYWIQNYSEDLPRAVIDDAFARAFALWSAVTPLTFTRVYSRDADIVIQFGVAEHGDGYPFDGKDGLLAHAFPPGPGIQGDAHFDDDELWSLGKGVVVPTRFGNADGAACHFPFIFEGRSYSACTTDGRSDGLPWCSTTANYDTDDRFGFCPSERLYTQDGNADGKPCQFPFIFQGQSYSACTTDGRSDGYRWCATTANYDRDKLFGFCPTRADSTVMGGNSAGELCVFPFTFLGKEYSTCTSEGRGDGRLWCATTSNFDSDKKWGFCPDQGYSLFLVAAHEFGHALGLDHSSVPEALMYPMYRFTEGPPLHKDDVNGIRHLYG

CCNC(=O)Nc1ccc(Oc2ccc(S(=O)(=O)CC3CS3)cc2)cc1 (stereo not drawn) [Compound 6b, 1-Ethyl-3-(4-(4-((thiiran-2-ylmethyl)sulfonyl)phenoxy)phenyl)urea]
elimination half-life in brain relative to plasma ([1]; 6b after 25 mg/kg sc dose of 6b): 3.3 fold
hydrolysis of 6b to give compound 3 in plasma and brain ([1]; after 25 mg/kg sc dose of 6b): not observed
time of maximal brain level of 6b ([1]; after 25 mg/kg sc dose of 6b): 10 min

CCOC(=O)Oc1ccc(Oc2ccc(S(=O)(=O)CC3CS3)cc2)cc1 (stereo not drawn) [Compound 4b, Ethyl (4-(4-((thiiran-2-ylmethyl)sulfonyl)phenoxy)phenyl) carbonate]
time to complete hydrolysis to compound 2 [2]: ≤ 5 min
Ki (inhibition constant) against MMP-9cat [3]: comparable inhibition constants against MMP-9cat as ND-322

CCOC(=O)Nc1ccc(Oc2ccc(S(=O)(=O)CC3CS3)cc2)cc1 (stereo not drawn) [Compound 7b, Ethyl (4-(4-((thiiran-2-ylmethyl)sulfonyl)phenoxy)phenyl)carbamate]
Ki (inhibition constant) against MMP-9cat [3]: comparable inhibition constants against MMP-9cat as ND-322

CCNC(=O)Oc1ccc(Oc2ccc(S(=O)(=O)CC3CS3)cc2)cc1 (stereo not drawn) [Compound 5b, 4-(4-((Thiiran-2-ylmethyl)sulfonyl)phenoxy)phenyl ethylcarbamate]
level of 5b in plasma or brain ([1]; after 25 mg/kg sc dose of 5b, all time points): not quantifiable

O=S(=O)(CC1CS1)c1ccc(Oc2ccc(O)cc2)cc1 (stereo not drawn) [Compound 2]
time of maximal brain level of 2 ([1]; after 25 mg/kg sc dose of 5b): 20 min
maximal brain level of 2, molar equivalent ([1]; after 25 mg/kg sc dose of 5b, at 20 min, assuming a density of 1.0 g/mL): 1.35 ± 1.10 µM
brain level of 2 at 4 h ([1]; after 25 mg/kg sc dose of 5b, mice): 0.255 ± 0.0154 pmol/mg
maximal plasma concentration of 2 ([1]; after 25 mg/kg sc dose of 5b, mice, at 10 min): 1.24 ± 0.676 µM
maximal brain level of 2 ([1]; after 25 mg/kg sc dose of 5b, mice, at 20 min): 1.35 ± 1.10 pmol/mg tissue
t½α, plasma ([1]; compound 2 after 25 mg/kg sc dose of 5b, mice): 0.688 h
Kp [1, 4]: 1.64
concentration at 4 h [1, 4]: 114 ± 14.7 nM
AUC(0-inf) [1, 5]: 1.17 µM·h
AUC(0-t) [1, 5]: 0.9 µM·h
Tmax [1, 5]: 0.167 h
half-life ([1]; female, C57Bl/6J, mouse, in vivo, sc, 25 mg/kg, t½β, brain): 8.88 h
half-life ([1]; female, C57Bl/6J, mouse, in vivo, sc, 25 mg/kg, t½β, plasma): 7.7 h
half-life ([1]; female, C57Bl/6J, mouse, in vivo, sc, terminal half-life in brain): 8.9 h
half-life ([1]; female, C57Bl/6J, mouse, in vivo, sc, terminal half-life in plasma): 7.7 h
AUC0-last, brain ([1]; mouse, in vivo, sc, 25 mg/kg): 88.8 pmol·min/mg
AUC0-∞, brain ([1]; mouse, in vivo, sc, 25 mg/kg): 129 pmol·min/mg
